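Results reflect a 48-hour exposure of cells in 96-well plates to compound at five concentrations. GI50 = concentration required for 50% inhibition of growth. TGI: concentration producing complete growth inhibition.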
How the values were obtained:
Test in all cases: growth of human tumour cells (NCI), 48 h
[1] = test system: HCT-15 colon
[2] = test system: SW-620 colon
[3] = test system: UACC-257 melanoma
[4] = test system: NCI-H522 lung
[5] = test system: HOP-62 NSCLC
[6] = test system: KM12 colon
[7] = test system: SK-MEL-2 melanoma
[8] = test system: MALME-3M melanoma
[9] = test system: K-562 leukemia
[10] = test system: MCF7 breast

Structure (SMILES)	TGI [1] [µM]	TGI [2] [µM]	TGI [3] [µM]	TGI [4] [µM]	TGI [5] [µM]	TGI [6] [µM]	TGI [7] [µM]	TGI [8] [µM]	TGI [9] [µM]	GI50 [1] [µM]	GI50 [2] [µM]	GI50 [3] [µM]	GI50 [4] [µM]	GI50 [6] [µM]	GI50 [7] [µM]	GI50 [8] [µM]	GI50 [9] [µM]	GI50 [5] [µM]	GI50 [10] [µM]	TGI [10] [µM]
O=C(Nc1cc(Cl)ccc1Cl)c1cc2cccc(Br)c2oc1=O	> 100	> 100	> 100	> 100	> 100	> 100	> 100	> 100	> 100											
Cc1ccc2[nH]c3c(c2c1)N=c1ccccc1=NO3	> 100	> 100	> 100	> 100		> 100	> 100	54.1	> 100	> 100	> 100	70.6	26	34.8	> 100	20	> 100			
O=C1C=CC(=O)C2C1Cc1ccccc1C2c1ccccc1 (stereo not given)	> 100	71	70.2	35.2	> 100	> 100	90.1	> 100	> 100											
COc1cc(OC)cc(-c2nc3sccn3c2/C=N/N=C(N)N)c1	14.9	19.1	16.1	> 50	17	10.3	> 50		19	8.1	10	7.74	15.4	3.13	16.7		9.7	9.95	9.41	20.1
NCCOCn1cc(Cc2cccc(OCc3ccccc3)c2)c(=O)[nH]c1=O	> 100	> 100				> 100	> 100		> 100											
COc1cc(O)c(C(=O)CC(C)=O)c(OC)c1		> 100	> 100	> 100	> 100	> 100	> 100	> 100	> 100											
O=S(=O)(c1ccccc1)c1nccs1	> 100	> 100	> 100	> 100	> 100	> 100	> 100		> 100											
O=C(O)CNc1ccc(Cl)c(Cl)c1	95.3	73.9	96.3	38	86.1	55.1			78.4											38.7
Cc1cc(C)nc(NS(=O)(=O)c2ccc(Nc3c4ccccc4nc4c(C(=O)Nc5ccc(S(=O)(=O)Nc6cc(C)on6)cc5)ccc(Cl)c34)cc2)n1	> 100		91.3	51.4	42.5	37.1		86.5	> 100											
CCOP(=O)(OCC)/C(C#N)=C\c1ccsc1	> 100	> 100	> 100	> 100	> 100	> 100	> 100	> 100												
Cc1c(-c2coc(-c3ccccc3)n2)c(=O)n(-c2ccccc2)n1C	> 100	> 100	> 100	> 100	> 100	> 100	> 100	> 100												
Cc1c(NC(=O)CCl)c(=O)oc2c(C)c3occc(=O)c3cc12		30.6	34		29.8	23.9		44.4	52											66.2
COc1ccc2c3c(c(C(=O)O)oc13)CCC2	> 100	> 100	> 100	> 100	> 100	> 100	> 100	> 100	> 100											
CCCCCCCCCCCC[N+](C)(C)Cc1ccccc1	34.3	12.1	4.25	3.95	7.27	3.14	3.6		6.63	13.1	2.69	1.82	1.53	1.48	1.97		1.56	2.69	2.01	7.7
CCN(CC)CCCOc1ccc2ncnc(Nc3ccc(Oc4cccc(C(F)(F)F)c4)c(Cl)c3)c2c1		3.09				3.24		3.04	8.73		1.61			1.77		1.57	1.21			
O=C1OCC(c2ccc(O)cc2)=C1c1cc(O)c(O)c(O)c1	> 100	> 100	> 100	> 100	> 100	> 100		> 100	> 100	> 100	68	> 100	> 100	89.3		> 100	82.2	58.6	77.5	> 100
Cc1ccc(NC(=O)C(=O)C(C(=O)c2ccc3ccccc3c2)C2OC(=O)c3ccccc32)c(C)c1 (stereo not given)	40.2	21.6	41.4	31.3	22.4	45.5	26.8	22.4	> 100											
CCCN(CCC)CCc1cc(C(C)=O)n(S(=O)(=O)c2ccc(C)cc2)c1	> 100	> 100	> 100	> 100	> 100	> 100	> 100	> 100	> 100											
CCNc1cc2oc(=O)cc(C(F)(F)F)c2cc1C	> 100	> 100	> 100	> 100	> 100	> 100	> 100		> 100											> 100
CCO/C(CCn1[nH]c(=O)c(Cl)c(Cl)c1=O)=N\NC(=O)C(=O)NN	> 100	> 100	> 100	> 100	> 100	> 100	> 100	> 100	> 100											
